Columns and labels:
[1] = Oral bioavailability studies in fasted dogs; conditions: dog, in vivo
Method: The following compositions comprising compound I were prepared and the bioavailability of each composition was determined in fasted dogs. Dogs (beagle dogs, mixed sexes, weighing about 10 kg) were fasted for at least 12 hours before dosing. Food was returned after the last blood sample was collected (24 hours). Water was available at all times. A dose equivalent to 50 or 100 milligrams of compound I was administered by mouth to each dog, followed with either 20 or 50 ml of water, respectively, through a feeding tube. […] Blood samples of 3 ml volume were anti-coagulated with EDTA. The plasma was separated by centrifugation and frozen until analyzed. Blood plasma concentrations of compound I were determined by HPLC. Bioavailability was calculated as follows: % Bioavailability=[(AUC)oral×D/(AUC)intravenous]×100. (AUC)oral and (AUC)intravenous are the areas under the curve for the plasma concentration-time profiles following oral and intravenous administration, respectively. D is a correlation factor for the difference between intravenous administration (3 mg/kg) and oral administration (about 10 mg/kg).

salt depleted dogs = experiment: Blood pressure lowering in salt depleted dogs; format: in vivo, dog; conditions: after oral or intravenous administration

With `CC(C)C[C@H](O)[C@H](O)[C@H](CC1CCCCC1)NC(=O)[C@H](Cc1cscn1)NC(=O)[C@H](Cc1ccccc1)CS(=O)(=O)N1CCN(C)CC1` [compound I, (2S)-2-Benzyl-3-(1-methyl-piperazin-4-ylsulfonyl)propionyl-(L)-(4-Thiazolyl)Ala Amide of (2S, 3R, 4S)-2-Amino-1-cyclohexyl-3,4-dihydroxy-6-methylheptane] the “times more bioavailable as soft elastic gelatin encapsulated solution compared to standard solid capsule or tablet compositions” value [1] was 2.1-5.2 times and the blood pressure (salt depleted dogs) was “reduces blood pressure”.
